Measurements: US12703836B2, “Mixture of compounds with high molecular weights, obtained from sugar cane wax (Saccharum officinarum L.)” (CENTRO NACIONAL DE INVESTIGACIONES CIENTÍFICAS, priority 2021, dated 2026)

Key:
[1] = tested on: rabbits with spinal cord damage induced by Ischemia/Reperfusion (I/R); test: Neurological deficit score in spinal cord ischemia/reperfusion (abdominal aorta occlusion); format: in vivo, New Zealand rabbits; details: lower = better
Procedure: The neuroprotective effect of the HMWS mixture, object of the present invention, was also investigated using an experimental model of induction of ischemia in the spinal cord. […] Furthermore, the effect of HMWS was compared with that of pure extract of free fatty acids (AcGL) administered at equal doses.
Male New Zealand rabbits (1.8-2.2 kg) were used, which were adapted for 15 days to laboratory conditions (temperature of 20 to 25° C., relative humidity of 60±5%, light/dark cycles of 12 hours), with free access to water and food.
The substances HMWS, AcGS, AlcG, AldG, AcGL and aspirin were prepared as suspensions in an acacia/water vehicle (1%). Once the quarantine was completed, the rabbits were distributed into 8 groups: a negative control that only received vehicle and was not induced ischemia and 7 groups with spinal cord ischemia: a positive control treated only with the vehicle, and 6 groups were treated with HMWS (200 mg/kg), AcGS (132 mg/kg), AlcG (40 mg/kg), AldG (28 mg/kg), AcGL (200 mg/kg), and aspirin (2 mg/kg) as reference substance. […]
For the induction of ischemia in the spinal cord, the rabbits were anesthetized with thiopental (20 mg/kg i.v.). […] At 4 and 24 hours of reperfusion, the neurological deficit of the animals was blindly evaluated by 2 independent observers (according to Zivin et al., 1982). […]

[2] = tested on: plasma concentrations of MDA; test: Plasma lipid peroxidation (SRATB, MDA) after cerebral ischemia/reperfusion; format: in vivo, Mongolian gerbils; details: gerbils, plasma after I/R; oral HMWS 200, AcGS 132, AlcG 40, AldG 28, AcGL 200, ASA 60 mg/kg
Text: (§1) For the evaluation of the neuroprotective effect of the mixture of high molecular weight substances, the object of the present invention, an experimental model of global cerebral ischemia by occlusion and reperfusion of the carotid arteries was used. The composition of High Molecular Weight Substances (HMWS) obtained in example 1 was subjected to a preclinical test with animals, in which its pharmacological effect was compared with the effects of pure extracts of Fatty Acids in the form of Salts (AcGS), fatty alcohols (AlcG) and high molecular weight aldehydes (AldG), which were administered in the dose equivalent to the proportion in which each one is present in 200 mg/kg of the HMWS Active Ingredient. Furthermore, the effect of HMWS was compared with the effect of pure free fatty acid (AcGL) extract administered at equal doses. Once the quarantine was over, the gerbils were distributed into 8 groups: a negative control that only received vehicle and cerebral ischemia (CI) was not induced and 7 groups with induced CI. […] All treatments were administered orally through intragastric intubation (0.5 mL/70 g body weight) 1 hour prior to induction of ischemia. […] To determine lipid peroxidation, the formation of substances reactive to thiobarbituric acid (SRATB) was quantified (according to Ohkawa et al., 1979) in plasma, and was expressed as nmol malondialdehyde (MDA)/mg of protein.

[3] = tested on: pyramidal cells of the CA1 area of the hippocampus; test: Histological score of brain damage after ischemia/reperfusion; format: in vivo, Mongolian gerbils; details: gerbils, oral HMWS 200, AcGS 132, AlcG 40, AldG 28, AcGL 200, ASA 60 mg/kg
Text: as §1, with “Sections from each brain were evaluated by a light microscopy scoring system for determination of damage to” for “To determine lipid peroxidation,”, “pyramidal cells” for “formation”, “the CA1 area” for “substances reactive to thiobarbituric acid (SRATB) was quantified (according to Ohkawa et al., 1979) in plasma, and was expressed as nmol malondialdehyde (MDA)/mg”, “the hippocampus with bilateral averages. […]” for “protein.”

CC(=O)Oc1ccccc1C(=O)O [ASA, aspirin]
Score (neurological deficit) 4 h ([1]; 4 h of reperfusion, oral for 10 days: HMWS (example 2) 200, AcGS 132, AlcG 40, AldG 28, AcGL 200, ASA 2 mg/kg, positive control 0.30 ± 0.17, negative 2 ± 0): 0.90 ± 0.25 | Score (neurological deficit) 24 h ([1]; 24 h of reperfusion, oral for 10 days: HMWS 200, AcGS 132, AlcG 40, AldG 28, AcGL 200, ASA 2 mg/kg, positive control 0.15 ± 0.1, negative 2 ± 0): 0.50 ± 0.24 | Inhibition (%) of MDA increase [2]: 0.0% | Histologic Score (brain, CA1, scale 0-4) ([3]; 24 hours reperfusion, mean ± SEM, positive control 2.96 ± 0.07): 2.00 ± 0.15 | Inhibition (%) of histological score of brain damage ([3]; I/R): 32.4%
